The nature of experiment [1]: Inhibition of protein phosphatase 2A (PP2A) was determined by standard phosphorylase inhibition assay. On the set-up: species or system Oryctolagus cuniculus.
A short description of experiment [2]: Inhibition of protein phosphatase 1 (PP1) was determined by standard phosphorylase inhibition assay. On the set-up: species or system Oryctolagus cuniculus.

Results on three molecules are retold here after ChEMBL document CHEMBL1136436, “A new model of the tautomycin-PP1 complex that is not analogous to the corresponding okadaic acid structure” (Bioorg Med Chem Lett, 2003).

Take `CC[C@@H](C)CC[C@H](O)[C@H](C)C(=O)C[C@@H](O)[C@H](OC)[C@H](OC(=O)C[C@@H](O)C1=C(C)C(=O)OC1=O)C(C)C`: the IC50 was 100 µM in experiment [1] and 130 µM in experiment [2].
Turning to `CO[C@@H](CO)[C@H](OC(=O)C[C@@H](O)C1=C(C)C(=O)OC1=O)C(C)C`, the values for the IC50 in experiment [1] and in experiment [2] were 3.3 µM and 4.8 µM, respectively.
Take `CO[C@H]([C@H](O)CC(=O)[C@@H](C)[C@@H](O)CC[C@@H](C)[C@@H]1O[C@]2(CC[C@@H](C)[C@H](CC[C@H](C)C(C)=O)O2)CC[C@@H]1C)[C@H](OC(=O)C[C@@H](O)C1=C(C)C(=O)OC1=O)C(C)C` [TAUTOMYCIN]: the values for the IC50 in experiment [1] and in experiment [2] were 0.9 µM and 0.19 µM, respectively.

By IC50 is commonly meant the point on the concentration scale where inhibition reaches its midpoint.
